Data taken from US4105798A, “Perfluoro polycyclic compounds for use as synthetic blood and perfusion media” (Sun Ventures, Inc., priority 1977, dated 1978).

Key:
[1] = percentage of injected PF material still in the liver of mice after stated weeks; assay type: in vivo
Source text: As indicated above, retention of the material in the body is important. The data below compare perfluorinated tributylamine (PFTBA), decalin (PFD), and methyldecalin (PFMD), with certain of the perfluorinated polycyclic hydrocarbons of this invention which have been obtained by perfluorinating the said polycyclic materials with just CoF3. Thus, in the table below "PFDMA" is the perfluorinated product derived from dimethyladamantane, i.e. a mixture of perfluorotrimethylbicyclo [3.3.1]nonane containing about 25 percent of other materials, principally perfluorinated dimethyladamantane. "PFMA" is the perfluorinated product of methyladamantane i.e., a mixture of perfluorodimethylbicyclo [3.3.1]nonanecontaining an unidentified amount of other compounds including perfluoromethyladamantane. Finally, "PFTHDCP" is the product of tetrahydrodicyclopentadiene, i.e. perfluorobicyclo [5.3.0] decane containing about 50 percent of other materials, principally perfluorotetrahydrodicyclopentadiene.
Emulsions containing 10% of the material to be tested, surfactant and water are made up and tested in the manner specified in Science, Vol. 181, August 1973, page 681. Mice were injected with the various emulsions. The mice were killed at intervals thereafter, the liver analyzed, and the percentage of original amount of PF material injected and still in the liver was determined.

[2] = LD50 after infusion of emulsion; assay type: in vivo; conditions: emulsions: 10.9% PFD, 10% PFDMA, 5% PFMA, 10% PFTBA
Source text: The LD50 after infusion (ml/kg) of our materials compared with others are follows: […]

[3] = relative emulsion stability; assay type: physicochemical
Method: (§1) The relative stability of a PFDMA emulsion and PFMA is excellent in that it is stable indefinitely, (e.g., over 6 months) at 4°-7° C whereas the PFD emulsion breaks down in several days at room temperature and in several weeks at 4°-7° C. PFTBA is also excellent. See for example the Journal of Microvascular Research, August 1974.

[4] = optical density / appearance of emulsion; assay type: physicochemical; conditions: for optical density of emulsion: emulsions prepared in the same manner
Method: as §1

Row | Percent of Dose in Liver After Stated Weeks ([1]; mouse, in vivo, 201600 min) [%] | Compound | Percent of Dose in Liver After Stated Weeks ([1]; mouse, in vivo, 20160 min) [%] | Percent of Dose in Liver After Stated Weeks ([1]; mouse, in vivo, 60480 min) [%] | Percent of Dose in Liver After Stated Weeks ([1]; mouse, in vivo, 120960 min) [%] | LD50 after infusion, 1 Hr. [2] [mL/kg] | LD50 after infusion, 3 Days [2] [mL/kg] | LD50 after infusion, 7 Days [2] [mL/kg] | time to emulsion break down ([3]; 4°-7° C) | time to emulsion break down ([3]; room temperature) | optical density of emulsion [4] | Percent of Dose in Liver After Stated Weeks ([1]; mice, injected emulsion containing 10% of material, 2 weeks) [%] | Percent of Dose in Liver After Stated Weeks ([1]; mice, injected emulsion containing 10% of material, 6 weeks) [%] | Percent of Dose in Liver After Stated Weeks ([1]; mice, injected emulsion containing 10% of material, 12 weeks) [%] | Percent of Dose in Liver After Stated Weeks ([1]; mice, injected emulsion containing 10% of material, 20 weeks) [%] | relative stability of emulsion (in words) ([3]; emulsion) | appearance of emulsion ([4]; in words)
1 | – | FC1(F)C(F)(F)C(F)(F)C2(F)C(F)(F)C(F)(F)C(F)(F)C(F)(F)C2(F)C1(F)F (centres unmarked) [PFD, perfluorodecalin] | 4 | 2 | 2 | 190 | 160 | 159 | several weeks | several days | 0.4 | – | – | – | – | – | –
2 | – | FC(F)(F)C(F)(F)C(F)(F)C(F)(F)N(C(F)(F)C(F)(F)C(F)(F)C(F)(F)F)C(F)(F)C(F)(F)C(F)(F)C(F)(F)F [PFTBA, perfluorinated tributylamine] | – | – | – | 200 | 120 | 120 | – | – | 2.2 | 38 | 30 | 30 | 30 | excellent | very milky in appearance
3 | 2 | methyldecalin [PFMD] | 30 | 19 | 2 | – | – | – | – | – | – | – | – | – | – | – | –
